In patent publication US20250215039A1, “NUCLEOSIDES FOR TREATING CANCER” (PRIMEFOUR THERAPEUTICS, INC., priority 2022, published 2025):
Where two headings read alike, the source gives them in different places.

Test system: cancer cell lines
Assay: Cancer cell proliferation activity (CellTiterGlo, 72 h)
Type: cell-based
Details: 72 h, 72 h, read-out: IC50 cell proliferation
Procedure, shortened: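 Cells seeded overnight at 37 °C, then dosed with compound at 0.1% final DMSO and incubated 72 h at 37 °C (5% or 10% CO2 by medium).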

An IC50 (5637 (bladder)) of 230 nM, an IC50 (CLS439 (bladder)) of 400 nM and an IC50 (HS729 (muscle)) of 150 nM were found for `CCC[C@]1(CO)O[C@@H](n2cnc3c(N)nc(F)nc32)[C@H](O)[C@@H]1O` [compound 195, (2R,3S,4R,5R)-5-(6-amino-2-fluoro-9H-purin-9-yl)-2-(hydroxymethyl)-2-propyltetrahydrofuran-3,4-diol] in this work. For the same molecule, the IC50 (J82 (bladder)) was 160 nM, the IC50 (JAR (placenta)) was 100 nM and the IC50 (MT3 (breast)) was 120 nM. For the same molecule, the IC50 (PANCI (pancreas)) was 2250 nM, the IC50 (PC3 (prostate)) was 220 nM and the IC50 (RD (muscle)) was 210 nM. It also gave an IC50 (T24 (bladder)) of 300 nM, an IC50 (Homo sapiens, 22Rv1, 72 h, 22RV1 (prostate)) of 540 nM and an IC50 (Homo sapiens, 786-0, 72 h, 786O (kidney)) of 110 nM. For the same molecule, the IC50 (Homo sapiens, A204, 72 h, A204 (muscle)) was 140 nM, the IC50 (Homo sapiens, A549, 72 h, A549 (lung)) was 60 nM and the IC50 (Homo sapiens, A673, 72 h, A673 (bone)) was 700 nM. The IC50 (Homo sapiens, A2780, 72 h, A2780 (ovary)) was 390 nM, the IC50 (Homo sapiens, A-375, 72 h, A375 (skin)) was 110 nM and the IC50 (Homo sapiens, A-431, 72 h, A431 (skin)) was 70 nM. For the same molecule, the IC50 (Homo sapiens, ACHN, ACHN (kidney)) was 90 nM, the IC50 (Homo sapiens, ASPC1, 72 h, ASPC1 (pancreas)) was 130 nM and the IC50 (Homo sapiens, BT-20, 72 h, BT20 (breast)) was 110 nM. It also gave an IC50 (Homo sapiens, BXPC-3, 72 h, BXPC3 (pancreas)) of 80 nM, an IC50 (Homo sapiens, C-33-A, C33A (endometrial)) of 380 nM and an IC50 (Homo sapiens, CAKI-1, 72 h, CAKI1 (kidney)) of 20 nM. The IC50 (Homo sapiens, COLO 205, 72 h, COLO205 (colon)) was 330 nM, the IC50 (Homo sapiens, COLO-678, 72 h, COLO678 (colon)) was 100 nM and the IC50 (Homo sapiens, Ca-Ski, CASKI (endometrial)) was 50 nM. The IC50 (Homo sapiens, Caco-2, 72 h, CACO2 (colon)) was 280 nM, the IC50 (Homo sapiens, Calu-6, 72 h, CALU6 (lung)) was 40 nM and the IC50 (Homo sapiens, DLD-1, 72 h, DLD1 (colon)) was 510 nM. The IC50 (Homo sapiens, DU-145, 72 h, DU145 (prostate)) was 30 nM, the IC50 (Homo sapiens, EFO-21, 72 h, EFO21 (ovary)) was 150 nM and the IC50 (Homo sapiens, EJ-28, 72 h, EJ28 (bladder)) was 140 nM. It also gave an IC50 (Homo sapiens, Granta-519, 72 h, GRANTA-519 (hematological)) of 160 nM, an IC50 (Homo sapiens, HCT-15, 72 h, HCT15 (colon)) of 290 nM and an IC50 (Homo sapiens, HCT-116, 72 h, HCT116 (colon)) of 250 nM. For the same molecule, the IC50 (Homo sapiens, HEK293, 72 h, HEK293 (kidney)) was 200 nM, the IC50 (Homo sapiens, HL-60, 72 h, HL-60 (hematological)) was 100 nM and the IC50 (Homo sapiens, HT-29, 72 h, HT29 (colon)) was 260 nM. It also gave an IC50 (Homo sapiens, HT-1080, 72 h, HT1080 (connective tissue)) of 270 nM, an IC50 (Homo sapiens, HeLa, HELA (endometrial)) of 80 nM and an IC50 (Homo sapiens, HepG2, 72 h, HEPG2 (liver)) of 170 nM. It also gave an IC50 (Homo sapiens, Hs-578T, HS578T (breast)) of 60 nM, an IC50 (Homo sapiens, IGROV-1, 72 h, IGROV1 (ovary)) of 80 nM and an IC50 (Homo sapiens, IMR-90, 72 h, IMR90 (lung)) of 60 nM. For the same molecule, the IC50 (Homo sapiens, JEG-3, 72 h, JEG3 (placenta)) was 100 nM, the IC50 (Homo sapiens, JIMT-1, 72 h, JIMT1 (breast)) was 30 nM and the IC50 (Homo sapiens, K562, 72 h, K-562 (hematological)) was 530 nM. It also gave an IC50 (Homo sapiens, Kasumi 1, 72 h, KASUMI-1 (hematological)) of 20 nM, an IC50 (Homo sapiens, L-363, 72 h, L-363 (hematological)) of 90 nM and an IC50 (Homo sapiens, LoVo, LOVO (colon)) of 30 nM. It also gave an IC50 (Homo sapiens, MCF7, 72 h, MCF7 (breast)) of 390 nM, an IC50 (Homo sapiens, MDA-MB-231, 72 h, MDAMB231 (breast)) of 240 nM and an IC50 (Homo sapiens, MDA-MB-435, 72 h, MDAMB435 (skin)) of 320 nM. It also gave an IC50 (Homo sapiens, MDA-MB-436, 72 h, MDAMB436 (breast)) of 80 nM, an IC50 (Homo sapiens, MDA-MB-468, 72 h, MDAMB468 (breast)) of 70 nM and an IC50 (Homo sapiens, MG-63, 72 h, MG63 (bone)) of 1730 nM. For the same molecule, the IC50 (Homo sapiens, MHH-ES-1, 72 h, MHHES1 (bone)) was 170 nM, the IC50 (Homo sapiens, MIA PaCa-2, 72 h, MIAPACA2 (pancreas)) was 1750 nM and the IC50 (Homo sapiens, MINO, MINO (hematological)) was 20 nM. The IC50 (Homo sapiens, MV4-11, 72 h, MV4-11 (hematological)) was 20 nM, the IC50 (Homo sapiens, NCI-H23, 72 h, NCI-H23 (lung)) was 220 nM and the IC50 (Homo sapiens, NCI-H82, 72 h, NCIH82 (lung)) was 170 nM. It also gave an IC50 (Homo sapiens, NCI-H292, 72 h, NCIH292 (lung)) of 150 nM, an IC50 (Homo sapiens, NCI-H460, 72 h, NCIH460 (lung)) of 170 nM and an IC50 (Homo sapiens, OVCAR-3, 72 h, OVCAR3 (ovary)) of 80 nM. The IC50 (Homo sapiens, OVCAR-4, 72 h, OVCAR4 (ovary)) was 150 nM, the IC50 (Homo sapiens, PLC-PRF-5, 72 h, PLCPRF5 (liver)) was 1040 nM and the IC50 (Homo sapiens, Panc1005, 72 h, PANC1005 (pancreas)) was 180 nM. The IC50 (Homo sapiens, Ramos, RAMOS (hematological)) was 140 nM, the IC50 (Homo sapiens, SAOS-2, 72 h, SAOS2 (bone)) was 100 nM and the IC50 (Homo sapiens, SF-268, 72 h, SF268 (brain)) was 300 nM. It also gave an IC50 (Homo sapiens, SF-295, 72 h, SF295 (brain)) of 220 nM, an IC50 (Homo sapiens, SK-BR-3, 72 h, SKBR3 (breast)) of 30 nM and an IC50 (Homo sapiens, SK-HEP1, 72 h, SKHEP1 (liver)) of 60 nM. The IC50 (Homo sapiens, SK-LMS-1, 72 h, SKLMS1 (uterus)) was 140 nM, the IC50 (Homo sapiens, SK-MEL-5, 72 h, SKMEL5 (skin; SKMELS [sic] in Table 9E)) was 90 nM and the IC50 (Homo sapiens, SK-MEL-28, 72 h, SKMEL28 (skin)) was 100 nM. For the same molecule, the IC50 (Homo sapiens, SK-N-AS, SKNAS (brain)) was 120 nM, the IC50 (Homo sapiens, SK-N-SH, SKNSH (brain)) was 80 nM and the IC50 (Homo sapiens, SK-OV-3, 72 h, SKOV3 (ovary)) was 90 nM. The IC50 (Homo sapiens, SNB-75, 72 h, SNB75 (brain)) was 220 nM, the IC50 (Homo sapiens, SU-DHL10, 72 h, SU-DHL-10 (hematological)) was 210 nM and the IC50 (Homo sapiens, SU-DHL-6, 72 h, SU-DHL-6 (hematological)) was 60 nM. For the same molecule, the IC50 (Homo sapiens, SW-620, 72 h, SW620 (colon)) was 80 nM, the IC50 (Homo sapiens, TE-671, 72 h, TE671 (muscle)) was 730 nM and the IC50 (Homo sapiens, THP-1, 72 h, THP-1 (hematological)) was 200 nM. For the same molecule, the IC50 (Homo sapiens, U2OS, U20S (bone; U2OS in Table 9E)) was 70 nM, the IC50 (Homo sapiens, U-87 MG, U87MG (brain)) was 150 nM and the IC50 (Homo sapiens, UMUC3, 72 h, UMUC3 (bladder)) was 190 nM. For the same molecule, the IC50 (Homo sapiens, UO-31, 72 h, UO31 (kidney)) was 50 nM, the IC50 (Homo sapiens, WSU-NHL, WSU-NHL (hematological)) was 40 nM and the IC50 (NCI-H358M, NCIH358M (lung)) was 140 nM. The IC50 (PBMC, PBMC (hematological)) was 20 nM and the IC50 (RD-ES, RDES (bone)) was 40 nM.
